Measurements from PMC9226319, “Peripherally restricted transthyretin-based delivery system for probes and therapeutics avoiding opioid-related side effects” (Nature Communications, 2022).
Values joined by “and” are separate entries in the source; they are usually repeats but may differ in a detail not shown here. Identical values can stand only once. Like-named read-outs stand apart in the source and are kept apart here.

Assays:
[1] = biological target: TTR in human serum (Homo sapiens, UniProt P02766); assay: TTR serum fluorescent probe exclusion (FPE) selectivity assay; assay type: binding; details: ligand 10 µM; for % TTR occupancy in human serum: FPE probe 3.6 µM, 3 h reading relative to probe alone, text mean ± s.d., table replicates; for %FPE probe fluorescence: human serum, replicates
[2] = system: male Sprague-Dawley rats; assay: Gastrointestinal (GI) transit (charcoal meal) assays; assay type: in vivo, rat; details: rat, in vivo
[3] = rat, single SC dose 16 µmol/kg
[4] = system: male Sprague-Dawley rats; details: rat, in vivo
[5] = in vivo; details: male, Sprague Dawley, rat, sc, 16 umol/kg
[6] = rat, single IV bolus 4.84 µmol/kg
[7] = in vivo; details: male, Sprague Dawley, rat, iv, 4.84 umol/kg

SMILES | % TTR occupancy in human serum [1] | %FPE probe fluorescence ([1]; time 0.000 h) [%] | %FPE probe fluorescence ([1]; time 0.083 h) | %FPE probe fluorescence ([1]; time 0.250 h) | %FPE probe fluorescence ([1]; time 0.500 h) | %FPE probe fluorescence ([1]; time 1.000 h) | %FPE probe fluorescence ([1]; time 1.250 h) | %FPE probe fluorescence ([1]; time 1.500 h) | %FPE probe fluorescence ([1]; time 1.750 h) | %FPE probe fluorescence ([1]; time 2.000 h) | %FPE probe fluorescence ([1]; time 2.250 h) | %FPE probe fluorescence ([1]; time 2.500 h) | %FPE probe fluorescence ([1]; time 2.750 h) | %FPE probe fluorescence ([1]; time 3.000 h) | %FPE probe fluorescence ([1]; time 3.500 h) | %FPE probe fluorescence ([1]; time 3.750 h) | %FPE probe fluorescence ([1]; time 4.000 h) | %FPE probe fluorescence ([1]; time 4.250 h) | %FPE probe fluorescence ([1]; time 4.500 h) | %FPE probe fluorescence ([1]; time 4.750 h) | also measured
O=C(O)c1ccc2nc(-c3cc(Cl)cc(Cl)c3)oc2c1 [Tafamidis, reference compound] | 47.45% and 46.83% and 51.34% and 50.15% | 0.000 | 1.299% and -1.005% and 0.704% and 3.155% | 4.449% and 1.397% and 6.031% and 9.730% | 5.578% and 5.344% and 9.630% and 15.940% | 17.103% and 15.634% and 16.546% and 22.347% | 23.082% and 19.584% and 22.707% and 26.257% | 27.125% and 23.274% and 25.961% and 28.688% | 32.902% and 29.136% and 30.570% and 32.212% | 35.080% and 33.047% and 36.500% and 37.379% | 40.669% and 40.161% and 39.661% and 42.469% | 46.027% and 42.493% and 42.354% and 44.462% | 50.625% and 47.468% and 47.510% and 47.875% | 53.169% and 48.662% and 49.846% and 52.554% | 60.381% and 56.275% and 57.091% and 59.281% | 61.493% and 61.080% and 58.641% and 60.288% | 65.122% and 63.511% and 61.468% and 61.493% | 66.463% and 64.406% and 63.696% and 64.254% | 68.966% and 68.075% and 65.963% and 66.999% | 72.160% and 67.655% and 67.312% and 67.678% | % TTR occupancy in human serum ([1]; listed as tafamidis): 48.9 ± 2.2%; %FPE probe fluorescence ([1]; time 5.000 h): 70.882% and 70.753% and 66.636% and 68.909%; %FPE probe fluorescence ([1]; time 5.250 h): 72.950% and 73.018% and 69.707% and 71.230%; %FPE probe fluorescence ([1]; time 5.500 h): 75.965% and 73.410% and 70.521% and 70.704%; %FPE probe fluorescence ([1]; time 5.750 h): 76.955% and 73.721% and 71.869% and 74.221%; %FPE probe fluorescence ([1]; time 6.000 h): 78.267% and 76.878% and 72.520% and 75.177%
COc1ccc2c3c1O[C@H]1C(=O)CC[C@@]4(O)[C@@H](C2)N(C)CC[C@]314 [Oxycodone, reference compound] |  |  |  |  |  |  |  |  |  |  |  |  |  |  |  |  |  |  |  |  | GI transit (% of vehicle) [2]: 18.7 ± 3.0%; constipation (GI transit) [2]: did not result in significant analgesia or constipation; GI transit (% of vehicle) ([2]; sc): 8.0 ± 2.7%; GI transit as % of vehicle group ([2]; sc): 4.72% and 11.93% and 8.19% and 6.37% and 8.96%; k [3]: 0.9 ± 0.12 h⁻¹; analgesia (hot plate) [4]: did not result in significant analgesia or constipation; analgesic effect 1 hour after ICV dosing [4]: no analgesic effect; hot plate latency ([4]; sc): 56.8 ± 3.8 s; AUC(0-inf) [5]: 4.85 ± 0.676 µM·h; CL/F [5]: 55.3 mL/min/kg; half-life [5]: 46.8 ± 5.4 min
CN1CC[C@]23c4c5ccc(O)c4O[C@H]2[C@@H](O)C=C[C@H]3[C@H]1C5 [Morphine, reference compound] |  |  |  |  |  |  |  |  |  |  |  |  |  |  |  |  |  |  |  |  | GI transit as % of saline group ([2]; sc): 18.81% and 20.1% and 15.01% and 14.94% and 19.9%; hot plate latency ([4]; iv): 60 s; hot plate latency ([4]; sc): 57.0 ± 2.5 s and 60 s; hot plate latency, compound alone ([4]; sc): 60 s
Cc1n[nH]c(C)c1CCCOc1cc(C(=O)O)ccc1F [AG10, reference compound] | 97.40% and 95.62% and 96.92% and 97.81% | 0.000 | 0.700% and 0.333% and 1.346% and -0.971% | 0.446% and 0.461% and 3.649% and -0.301% | -1.954% and 0.832% and 3.724% and 2.441% | -0.363% and 4.377% and 2.966% and 3.350% | 2.954% and 2.394% and 3.246% and -1.477% | 2.170% and 0.641% and 2.641% and 0.126% | 0.743% and 3.255% and 1.620% and 2.521% | 4.231% and 0.837% and 2.557% and 0.855% | 5.793% and 2.286% and 2.057% and 0.029% | 6.054% and 2.118% and 3.144% and 0.438% | 2.727% and 2.921% and 3.595% and 1.032% | 2.597% and 4.380% and 3.077% and 2.193% | 3.724% and 3.796% and 4.505% and 2.484% | 3.879% and 3.578% and 5.075% and 1.835% | 3.514% and 5.359% and 4.237% and 1.611% | 3.887% and 3.398% and 4.915% and 2.063% | 4.733% and 4.892% and 5.145% and 3.486% | 6.115% and 5.517% and 7.470% and 4.138% | %FPE probe fluorescence ([1]; time 5.000 h): 6.088% and 5.023% and 7.566% and 3.162%; %FPE probe fluorescence ([1]; time 5.250 h): 5.909% and 5.424% and 7.406% and 4.467%; %FPE probe fluorescence ([1]; time 5.500 h): 6.587% and 5.102% and 7.881% and 3.568%; %FPE probe fluorescence ([1]; time 5.750 h): 6.453% and 4.461% and 7.648% and 5.604%; %FPE probe fluorescence ([1]; time 6.000 h): 4.737% and 6.705% and 8.837% and 3.939%
C=CCN1CC[C@]23c4c5ccc(O)c4O[C@H]2C(=O)CC[C@@]3(O)[C@H]1C5 [Naloxone, reference compound] |  |  |  |  |  |  |  |  |  |  |  |  |  |  |  |  |  |  |  |  | k [6]: 0.81 ± 0.13 h⁻¹; k [3]: 1.03 ± 0.1 h⁻¹; AUC(0-inf) [7]: 1.46 ± 0.257 µM·h; Vd [7]: 1.23 ± 0.42 L/kg; clearance [7]: 56.5 mL/min/kg; half-life [7]: 52.2 ± 7.8 min; AUC(0-inf) [5]: 1.76 ± 0.237 µM·h; CL/F [5]: 152 mL/min/kg; Vd/F [5]: 8.94 ± 2.08 L/kg; half-life [5]: 40.2 ± 4.2 min
